The numbers were not newly measured in patent publication US7887828B2, “Dual action organic formulation to control two stages of insect pests” (ISCA Technologies, Inc., priority 2006, dated 2011), which cites them from elsewhere.

Data set [1] deals with gypsy moth larvae. As to conditions: 3-day exposure; 13-day evaluation; 2nd instar larvae; treated red oak leaf disks.
Data set [2] has as its system gypsy moth larvae.
Data set [3] concerns gypsy moth larvae. As to conditions: 16 hours after a 2 minute crawling exposure to glass coated with a 4 mg/litre solution.
Data set [4] deals with mammalian and avian species. As to conditions: as indicated by DAS.

As to spinosad, the LC50 in the data set on gypsy moth larvae [1] was 0.0015 mg AI/cm2. Moreover, the larval populations reduced with gypsy moth larvae [2] (3±50 mg/litre applied to run-off, ornamental style applications) is listed as 95±100%. Also, in the data set with gypsy moth larvae [2] (application rate of 0.75 mg/litre), the population reduction entry is given as “large population reductions”. Besides, the “concentrations that effectively controlled 2nd instar larvae” value in the data set on gypsy moth larvae [2] (applied to foliage to run-off, laboratory potted red oak seedlings and field 4 m-tall birch trees) is 3 to 50 mg/L. The treated larvae paralyzed in the data set with gypsy moth larvae [3] was 50%. In addition, the “toxicity to mammalian and avian species” value in data set [4] is listed as “little or no toxicity”.
